# In publication PMC12171880, “Selectivity and Safety Characterization of a Xanthine–Imidazothiazole Lead Structure: a Novel Tryptophan Hydroxylase Inhibitor of Peripheral Serotonin Synthesis” (ACS Pharmacology & Translational Science, 2025):
# Experiments:
# [1] = Toxicokinetic evaluation, plasma exposure in rats (LC-MS); type: in vivo, rat; settings: for concentration at 30 min: both sexes, Sprague-Dawley, rat, plasma, po
# Protocol: TPT-004 was formulated in 0.5% (w/v) CMC-Na in water and administered by oral gavage (PO) twice daily (b.i.d.) with a 12 h interval to the treatment groups (3 male and 3 female Sprague–Dawley rats each) for 8 days (15 successive applications). Rats were dosed with 10, 45, and 200 mg/kg, i.e., daily doses of 20, 90, and 400 mg/kg. In addition, a control group was dosed at the same frequency as the vehicle (0.5% CMC-Na).
# A blood sample of 100 μL was obtained from each rat by puncturing one of the lateral tail veins under short isoflurane anesthesia. Blood was collected in tubes containing lithium heparin and gently mixed. After centrifugation (10 min at 3000g, 4 °C), plasma was separated and stored at −20 °C until LC-MS analysis. In addition, on day 8, the rats were exsanguinated by cardiac puncture under isoflurane anesthesia. A volume of 100 μL of blood (K3-EDTA) was used for immediate cell blood count, while the rest of the blood was mixed with lithium heparin and centrifuged to generate plasma for clinical chemistry analysis.
# human recombinant PAH = molecular target: T1, human recombinant PAH (Homo sapiens, UniProt P00439); assay: PAH enzymatic activity assay (fluorescence, 96-well); type: biochemical
# T1 construct: expression vectors for full-length human PAH (UniProt entry P00439); made in house; host or cells: E. coli T7 Express (NEB) with pRARE2
# T1 sequence (P00439 1-452): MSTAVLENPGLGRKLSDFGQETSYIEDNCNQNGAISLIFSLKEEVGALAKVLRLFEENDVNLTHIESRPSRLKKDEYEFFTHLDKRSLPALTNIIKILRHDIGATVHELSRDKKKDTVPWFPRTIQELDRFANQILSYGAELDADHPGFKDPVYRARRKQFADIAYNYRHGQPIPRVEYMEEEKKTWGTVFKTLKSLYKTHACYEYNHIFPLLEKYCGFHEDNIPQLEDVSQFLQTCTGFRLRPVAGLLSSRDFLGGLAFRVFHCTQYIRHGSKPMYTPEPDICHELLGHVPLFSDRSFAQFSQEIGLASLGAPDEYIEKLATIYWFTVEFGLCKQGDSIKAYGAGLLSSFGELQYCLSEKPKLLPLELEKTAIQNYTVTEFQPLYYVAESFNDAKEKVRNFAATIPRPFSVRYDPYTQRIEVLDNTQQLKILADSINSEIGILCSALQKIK
# brain serotonin turnover = settings: mice, 1.5 mg/kg BID to 100 mg/kg BID; prior pharmacodynamic studies; cited from earlier work
# human recombinant TPH1 = molecular target: T2, human recombinant TPH1 (Homo sapiens, UniProt P17752); assay: TPH1 enzymatic activity assay (fluorescence, 96-well); type: biochemical
# T2 construct: Full-length human TPH1 and TPH2 (UniProt entries P17752 and Q8IWU9); MBP (N); made in house
# T2 sequence (P17752 1-444): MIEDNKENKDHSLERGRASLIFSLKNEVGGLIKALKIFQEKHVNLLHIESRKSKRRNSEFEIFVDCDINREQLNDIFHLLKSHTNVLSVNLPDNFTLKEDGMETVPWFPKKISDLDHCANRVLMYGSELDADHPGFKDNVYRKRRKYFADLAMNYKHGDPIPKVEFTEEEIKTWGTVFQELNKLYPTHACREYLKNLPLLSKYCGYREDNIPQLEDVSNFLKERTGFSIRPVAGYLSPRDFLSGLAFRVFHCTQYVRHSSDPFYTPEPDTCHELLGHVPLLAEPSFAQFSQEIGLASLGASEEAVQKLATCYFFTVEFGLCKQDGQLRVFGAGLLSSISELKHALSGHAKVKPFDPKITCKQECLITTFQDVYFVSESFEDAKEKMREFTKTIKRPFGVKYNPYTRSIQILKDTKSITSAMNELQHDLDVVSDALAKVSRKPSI
# rat homolog of TH = molecular target: T3, rat homolog of TH (Rattus norvegicus, UniProt P04177); assay: Eurofins Diversity Panel enzyme assay, rat TH; type: biochemical
# T3 construct: Eurofins Cerep (contract screening)
# T3 sequence (P04177 whole entry): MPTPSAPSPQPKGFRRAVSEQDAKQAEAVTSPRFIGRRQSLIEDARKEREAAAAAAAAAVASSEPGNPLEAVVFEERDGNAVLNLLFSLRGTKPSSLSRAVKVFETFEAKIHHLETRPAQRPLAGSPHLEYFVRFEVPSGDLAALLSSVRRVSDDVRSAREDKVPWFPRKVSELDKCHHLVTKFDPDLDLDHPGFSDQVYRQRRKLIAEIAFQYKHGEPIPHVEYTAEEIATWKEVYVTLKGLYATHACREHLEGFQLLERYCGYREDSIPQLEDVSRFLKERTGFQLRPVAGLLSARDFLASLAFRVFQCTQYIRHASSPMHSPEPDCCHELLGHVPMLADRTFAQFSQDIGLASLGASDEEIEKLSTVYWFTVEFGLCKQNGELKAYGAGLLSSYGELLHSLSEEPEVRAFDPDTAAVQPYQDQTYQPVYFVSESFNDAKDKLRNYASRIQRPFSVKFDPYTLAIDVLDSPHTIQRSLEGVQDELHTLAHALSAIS
# Protocol: TPT-004 was evaluated at a concentration of 10 μM in a total of 97 binding, enzyme, and uptake assays (Diversity Panel) by Eurofins Cerep (Celle l’Evescault, France). Compound binding was calculated as % inhibition of the binding of a ligand specific to each target. The compound enzyme inhibition effect was calculated as percentage inhibition of the control enzyme activity. Results showing an inhibition (or stimulation for assays run under basal conditions) of >50% are considered to represent significant effects of the test compounds. Results showing an inhibition (or stimulation) between 25% and 50% are indicative of weak to moderate effects. Results showing an inhibition (or stimulation) lower than 25% are not considered significant and are mostly attributable to variability in the signal around the control level. […] In each experiment, and if applicable, the respective reference compound was tested concurrently with TPT-004, and the data were compared with historical values determined at Eurofins. […]
# The results are expressed as a percent of control-specific binding: measured specific binding/control specific binding×100 and as a percent inhibition of control-specific binding: 100−(measured specific binding/control specific binding×100) obtained in the presence of TPT-004. […]
smiles,measurement,setting,value
CCn1c(=O)[nH]c(=O)c2c1nc(Cc1cn3cc(C)sc3n1)n2CC1COC1 [TPT-004],accumulation in plasma after 15 doses,"[1]; 10, 45, 200 mg/kg BID, day 1 vs day 8",absence of an accumulation effect
same,concentration at 30 min,"[1]; 10 mg/kg, day 1, 30 min after the first application, 10 mg/kg PO",902 ± 247 ng/mL
same,concentration at 30 min,"[1]; 10 mg/kg, day 8, 30 min after the 15th application, 10 mg/kg BID PO",877 ± 210 ng/mL
same,concentration at 30 min,"[1]; 45 mg/kg, day 1, 30 min after the first application, 45 mg/kg PO",4720 ± 2420 ng/mL
same,concentration at 30 min,"[1]; 45 mg/kg, day 8, 30 min after the 15th application, 45 mg/kg BID PO",5040 ± 1790 ng/mL
same,concentration at 30 min,"[1]; 200 mg/kg, day 1, 30 min after the first application, 200 mg/kg PO",18200 ± 6610 ng/mL
same,concentration at 30 min,"[1]; 200 mg/kg, day 8, 30 min after the 15th application, 200 mg/kg BID PO",14400 ± 5600 ng/mL
same,dose linearity correlation in plasma,[1]; day 1,0.9987
same,dose linearity correlation in plasma,[1]; day 8,0.9826
same,Mean PAH activity [%],human recombinant PAH; 10 nM,94.75%
same,IC50,"human recombinant PAH; 10 nM to 30 μM, 175 μM L-Phe, 10 μM BH4",404 nM
same,Mean PAH activity [%],human recombinant PAH; 30 nM,91.12%
same,Mean PAH activity [%],human recombinant PAH; 100 nM,82.79%
same,Mean PAH activity [%],human recombinant PAH; 300 nM,58.10%
same,Mean PAH activity [%],human recombinant PAH; 1 μM,25.53%
same,Mean PAH activity [%],human recombinant PAH; 3 μM,9.81%
same,Mean PAH activity [%],human recombinant PAH; 10 μM,4.37%
same,Mean PAH activity [%],human recombinant PAH; 30 μM,2.49%
same,Selectivity ratio PAH IC50 : TPH1 IC50,human recombinant PAH; calculated from determined IC50 values,12.09
same,IC50,human recombinant PAH; supplementary CSV,404 nM
same,balance of brain serotonin turnover,brain serotonin turnover,did not show an altered balance of brain serotonin turnover
same,Mean TPH1 activity [%],human recombinant TPH1; 3 nM,99.51%
same,IC50,"human recombinant TPH1; 3 nM to 10 μM, 15 μM L-Trp, 20 μM BH4",33.4 nM
same,Mean TPH1 activity [%],human recombinant TPH1; 10 nM,77.11%
same,Mean TPH1 activity [%],human recombinant TPH1; 30 nM,52.25%
same,Mean TPH1 activity [%],human recombinant TPH1; 100 nM,21.29%
same,Mean TPH1 activity [%],human recombinant TPH1; 300 nM,7.59%
same,Mean TPH1 activity [%],human recombinant TPH1; 1 μM,3.62%
same,Mean TPH1 activity [%],human recombinant TPH1; 3 μM,3.64%
same,Mean TPH1 activity [%],human recombinant TPH1; 10 μM,3.21%
same,fold higher TPH1 inhibitory potency (lower IC50) compared to LP778902,human recombinant TPH1; 33.38 vs […],~18
same,IC50,human recombinant TPH1; supplementary CSV,33 nM
same,inhibition at 10 µM,rat homolog of TH,87.8%
